The text below walks through data of patent publication US12295396B2, “Antagonists of T2R54 and compositions and uses thereof” (Firmenich Incorporated, priority 2018, dated 2025).

The target of one test is T1, hT2R54 (Homo sapiens, UniProt P59534).
T1 construct: expressed in transfected cells; it overexpresses a promiscuous G protein
T1 sequence (P59534 1-338): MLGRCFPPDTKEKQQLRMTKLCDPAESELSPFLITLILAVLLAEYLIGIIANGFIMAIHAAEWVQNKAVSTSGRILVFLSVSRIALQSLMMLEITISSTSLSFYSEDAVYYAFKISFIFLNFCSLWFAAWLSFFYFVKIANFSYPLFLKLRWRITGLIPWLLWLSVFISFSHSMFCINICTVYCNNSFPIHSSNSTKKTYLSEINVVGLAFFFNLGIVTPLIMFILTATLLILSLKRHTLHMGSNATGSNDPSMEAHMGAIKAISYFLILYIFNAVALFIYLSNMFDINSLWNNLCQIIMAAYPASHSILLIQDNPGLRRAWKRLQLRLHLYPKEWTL
The test can be described thus: Cell-based assay for measuring hT2R54 inhibition (FLIPR calcium, Fluo4AM, acetaminophen as bitter agonist). The note with it: read-out: hT2R54 IC50. In short, it runs like this: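 Cells stably co-expressing hT2R54 and a promiscuous G protein were loaded with Fluo4AM and given acetaminophen dose series, alone or with fixed concentrations of test compound. On FLIPR, baseline was recorded for 10 s and fluorescence for 3 min after addition. IC50 is the concentration halving the acetaminophen-alone response.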

For a further test, the target named is T2, T2R61 (Homo sapiens, UniProt P59537).
T2 sequence (P59537 1-309): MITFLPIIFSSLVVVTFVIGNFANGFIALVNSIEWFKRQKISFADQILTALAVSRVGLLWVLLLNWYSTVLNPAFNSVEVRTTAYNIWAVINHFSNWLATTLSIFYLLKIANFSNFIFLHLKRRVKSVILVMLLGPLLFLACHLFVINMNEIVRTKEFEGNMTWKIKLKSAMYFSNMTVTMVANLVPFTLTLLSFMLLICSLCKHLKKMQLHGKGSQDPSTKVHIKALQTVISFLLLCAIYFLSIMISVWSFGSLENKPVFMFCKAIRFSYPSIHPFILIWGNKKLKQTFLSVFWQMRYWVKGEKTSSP
The test can be described thus: Antagonist activity against a panel of bitter taste receptors (receptor based assay): T2R61. It counts as cell-based. An excerpt:
(§1) Compounds described in this application show potent bitter antagonist effect on T2R54 in receptor based assays. […] Antagonist activity of 1-(6-methyl-2-phenylpyrimidin-4-yl)piperidine-4-carboxamide against a panel of bitter taste receptors is shown in Table 10, with the identity of each T2R as indicated in the left column, and the percentage activity remaining is indicated in the far right column.

The next test has as its target T3, T2R64 (Homo sapiens, UniProt P59538).
T3 sequence (P59538 1-309): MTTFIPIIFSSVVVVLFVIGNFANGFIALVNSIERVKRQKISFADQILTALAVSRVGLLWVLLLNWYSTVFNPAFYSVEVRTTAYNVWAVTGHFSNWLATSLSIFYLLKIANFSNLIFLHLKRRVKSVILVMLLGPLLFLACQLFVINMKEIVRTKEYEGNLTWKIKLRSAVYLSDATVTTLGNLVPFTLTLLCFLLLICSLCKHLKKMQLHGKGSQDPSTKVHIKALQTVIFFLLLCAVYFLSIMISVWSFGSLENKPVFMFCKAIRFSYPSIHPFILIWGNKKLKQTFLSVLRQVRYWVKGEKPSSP
The test can be described thus: Antagonist activity against a panel of bitter taste receptors (receptor based assay): T2R64. In kind it is cell-based.
Text: as §1

For another test, the target named is T4, T2R75 (Homo sapiens, UniProt P59540).
T4 sequence (P59540 1-309): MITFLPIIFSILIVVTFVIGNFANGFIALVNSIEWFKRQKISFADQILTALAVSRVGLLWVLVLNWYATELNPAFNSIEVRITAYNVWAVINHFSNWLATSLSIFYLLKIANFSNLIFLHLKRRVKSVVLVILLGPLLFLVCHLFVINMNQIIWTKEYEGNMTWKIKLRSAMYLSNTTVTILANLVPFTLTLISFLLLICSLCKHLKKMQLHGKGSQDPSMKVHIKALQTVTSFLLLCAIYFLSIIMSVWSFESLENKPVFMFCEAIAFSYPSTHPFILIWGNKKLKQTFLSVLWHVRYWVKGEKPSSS
Kind of test: Antagonist activity against a panel of bitter taste receptors (receptor based assay): T2R75. It counts as cell-based.
Text: as §1

The test system of test [1] is bitterness of epigallocatechin gallate (EGCg). The test can be described thus: Sensory experiments: taste tests comparing EGCg alone with EGCg and a bitter blocker. It counts as in vivo, human. How it is done:
To determine the effectiveness of an individual antagonist in blocking the bitterness, taste tests were performed comparing epigallocatechin gallate (EGCg) alone, which is known to activate T2R54 with EGCg and a bitter blocker described herein, namely compound 22 (Table 2).

The mark [2] stands for this setting: Table 2, cells stably expressing hT2R54 and a promiscuous G protein.

Molecules are shown by their SMILES. Like-named read-outs stand apart in the source and are kept apart here.

As usually defined, the IC50 is the point on the concentration scale where inhibition reaches its midpoint. Turning to `CC(=O)c1cc2c(cc1NC(=O)CN1CCN(C(=O)CC(C)C)CC1)OCO2` [Cmpd 1, N-(6-Acetylbenzo[d][1,3]dioxol-5-yl)-2-(4-(3-methylbutanoyl)piperazin-1-yl)acetamide], the IC50 on hT2R54 (setting [2]) worked out at 16 nM. Moreover, the “bitter blocking effect on T2R61” value at T2R61 was “significant bitter blocking effect”. For the same compound, on T2R64, the “bitter blocking effect on T2R64” value was “significant bitter blocking effect”. In addition, the “bitter blocking effect on T2R75” value at T2R75 is listed as “significant bitter blocking effect”.
For `CC(=O)c1cc2c(cc1NC(=O)CN1CCN(C(=O)C3CCCO3)CC1)OCO2` (stereo not shown) [compound 22], the IC50 on hT2R54 (setting [2]) worked out at 21 nM. The “Total (times sample selected as more bitter)” value in test [1] (600 uM EGCG + 15 uM compound versus 600 uM EGCG alone, 56 in total, p-value 0.044) was 20. In test [1] (taste tests, EGCg alone versus EGCg with bitter blocker), the “reduction of EGCg bitterness” value was “has the ability to reduce EGCg bitterness”.
As to `COCc1ccc(C(=O)N2CCCC(CC(=O)Nc3cc4c(cc3C(C)=O)OCO4)C2)cc1` (stereo not shown) [compound 503], the IC50 on hT2R54 (Table 8) was 99 nM.
Still for that read-out and setting: as for `CC(=O)c1cc2c(cc1NC(=O)CC1CCCN(C(=O)c3nc(C)c[nH]3)C1)OCO2` (stereo not shown) [compound 504], the figure is 159 nM.
The same measure, in the same setting: for `CC(=O)c1cc2c(cc1NC(=O)CC1CCCN(C(=O)c3ncc[nH]3)C1)OCO2` (stereo not shown) [compound 505] the value was 130 nM.
`CC(=O)c1cc2c(cc1NC(=O)CC1CCCN(C(=O)c3cccnc3)C1)OCO2` (stereo not shown) [compound 506]: the IC50 at hT2R54 (Table 8) came out at 113 nM.
The same measure, in the same setting: as for `CC(=O)c1cc2c(cc1NC(=O)CC1CCCN(C(=O)c3ccccn3)C1)OCO2` (stereo not shown) [compound 507], the figure is 275 nM; as for `COC(=O)c1cc2c(cc1NC(=O)CC1CCCN(C(C)=O)C1)OCCO2` (stereo not shown) [compound 508], 1200 nM; as for `CC(=O)c1cc2c(cc1NC(=O)CC1CN(C(C)=O)CCO1)OCO2` (stereo not shown) [compound 509], 180 nM.
For the compound `CC(=O)c1cc2c(cc1NC(=O)CC1CN(C(=O)C3CCCO3)CCO1)OCO2` (stereo not shown) [compound 510], the IC50 on hT2R54 (Table 8) was 150 nM.
The same measure, in the same setting: as for `COc1cc2c(cc1NC(=O)CC1CCCN(C(=O)CC(C)C)C1)OCO2` (stereo not shown) [compound 511], the figure is greater than 10000 nM.
Consider `COc1cc2c(cc1NC(=O)CC1CCCN(C(=O)c3ccco3)C1)OCO2` (stereo not shown) [compound 512], for which the IC50 on hT2R54 (Table 8) was 7700 nM.
On the same count and under the same terms, for `COc1cc2c(cc1NC(=O)CC1CCCN(C(=O)c3ccccc3)C1)OCO2` (stereo not shown) [compound 513] the value was 2700 nM.
The same measure, in the same setting: as for `CCS(=O)(=O)N1CCCC(CC(=O)Nc2cc3c(cc2OC)OCO3)C1` (stereo not shown) [compound 515], the figure is 500 nM.
On to `CC(=O)c1cc2c(cc1NC(=O)CC(C)C)OCO2` [compound 516], for which the IC50 at hT2R54 (Table 9) came out at 3000 nM.
Same read-out and setting: as for `CC(=O)c1cc2c(cc1NC(=O)CC1CCCC1)OCO2` [compound 517], the figure is 414 nM.
The same measure, in the same setting: as for `CC(=O)c1cc2c(cc1NC(=O)Cc1c(C)noc1C)OCO2` [compound 518], the figure is 3800 nM; as for `CC(=O)c1cc2c(cc1NC(=O)CC1CCCN(C(=O)OC(C)(C)C)C1)OCO2` (stereo not shown) [compound 519], 900 nM; as for `COc1cc2c(cc1NC(=O)CC1CCCC1)OCO2` [compound 520], 308 nM.
The same measure, in the same setting: for `COc1cc2c(cc1NC(=O)CC1CCCCO1)OCO2` (stereo not shown) [compound 521] the value was 2260 nM.
As for `COc1ccccc1CC(=O)Nc1cc2c(cc1OC)OCO2` [compound 522], the IC50 at hT2R54 (Table 9) was 886 nM.
Take `CC(=O)c1cc2c(cc1NC(=O)Cc1ccco1)OCO2` [compound 523]: the IC50 at hT2R54 (Table 9) is 2310 nM.
Same read-out and setting: for `COc1cc2c(cc1NC(=O)Cc1ccsc1)OCO2` [compound 524] the value was 868 nM; for `COc1cc2c(cc1NC(=O)C(C)C1CCN(C(=O)OC(C)(C)C)CC1)OCO2` (stereo not shown) [compound 525], 3000 nM.
Still for that read-out and setting: for `COC(=O)c1cc2c(cc1NC(=O)CC1CCN(C(=O)OC(C)(C)C)CC1)OCO2` [compound 528] the value was roughly 1000 nM; for `COC(=O)c1cc2c(cc1NC(=O)CC1CCOCC1)OCCO2` [compound 529], 12000 nM.
